From patent US12691093B2 (THE TRUSTEES OF INDIANA UNIVERSITY, priority 2020, dated 2026)

System: MC38-OVA cells
Experiment: CD8+ T cell cytotoxicity assay (OT-I CD8+ T cells co-cultured with MC38-OVA cells, luciferase)
Format: cell-based, mouse
Details: each drug 5.0 μM; in vitro luciferase assay
Protocol: MC38-OVA cells expressing luciferase were co-cultured with OT-I CD8+ T cells in the presence of each drug (5.0 μM) and the T cell-mediated cytotoxicity was measured by the luciferase assay. Difference (log 2): (log 2 [relative viability] >1; P<0.05). Relative viability=(tumor cell viability of treated group)/(tumor cell viability of control group). […] Statistical analysis was conducted using 1-way ANOVA.
T cells were then centrifuged and cultured in RPMI1640 medium containing of 2 ng/ml murine IL2, 10% FBS and 1% PS.To measure the cytotoxicity of CD8+ T cells, 50,000 enriched CD8+ T cells were mixed in 96-well plates with MC38-OVA cells at ratios of 5:1, 1:1 or 1:5. […] We assessed the killing efficiency by measuring the activity of luciferase (#E1910, Dual-Luciferase® Reporter Assay System, Promega) after 6 hours of co-culture of the T-cells together with the tumor cells.
The CD8+ T cells were freshly isolated from the spleen of OT-I mouse (C57BL/6-Tg (TcraTcrb) 1100Mjb/J).

Molecule | ranking in screen of antigen-specific OT-I CD8+ T-cell killing of MC38-OVA tumor cells
COc1ccc(-c2coc3cc(O)cc(O)c3c2=O)cc1 [biochanin A] | top-ranked compounds that most potently affected the T-cell activity
icariin | top-ranked compounds that most potently affected the T-cell activity
